Laboratory results reported in patent US20080293686A1, “SEMI-SOLID SYSTEMS CONTAINING AZETIDINE DERIVATIVES” (AVENTIS PHARMA S.A., priority 2003, published 2008).
Values after ≈ are worked out from the molar mass of the structure shown.

How the values were obtained:
[1] = Solubility of compound (Ic) in lipids and other pharmaceutical cosolvents; assay type: physicochemical; conditions: in Soyabean oil
Source text: The first step was to determine the solubility of compound (Ic) in an exhaustive series of lipids and other pharmaceutical cosolvents including vegetable oils, lipidic components, surfactants, hydrophilic components and phospholipids. The protocol of the solubility measurement is reported in the annex.

[2] = Colloidal stability and self-emulsifying properties after incubation with simulated gastrointestinal fluids and filtration; assay type: physicochemical; conditions: diluted 1:50, 2 hours at 37° C., theoretical concentration 200 μg/ml
Protocol: The following simulated media were selected for the present experiment: • Gastric medium USP, pH 1.2 • Fasted intestinal medium, pH 6.8 (ref. Dressman et al., Pharm. Res., 1998) • Fed intestinal medium, pH 5 (ref. Dressman et al., Pharm. Res., 1998)
All Compound (Ic) formulations (400 mg) were diluted 1:50 in the gastric, fasted intestinal or fed intestinal medium (20 ml), then incubated during 2 hours at 37° C. under mechanical stirring (300 rpm). The drug concentration was determined by HPLC before and after filtration (2 μm).
The aim of this second part of the study was to evaluate the colloidal stability and the self-emulsifying properties of the emulsion/microemulsion/micellar solution of the (Ic) formulation after incubation in the GI media. Thus, the sample was filtered onto 2 μm (able to retain oil droplets >2 μm, as well as drug crystals >2 μm) then dosed by HPLC. The filter size (2 μm) has been chosen after a screening with different filter sizes (0.45, 2 and 5 μm) tested on the aqueous solution of the drug. […] In summary, the filtered fraction was approximately 1% in the gastric medium, 2% in the fasted intestinal medium, 4.5-5.5% in the fed intestinal medium.

CS(=O)(=O)C(=C1CN(C(c2ccc(Cl)cc2)c2ccc(Cl)cc2)C1)c1cc(F)cc(F)c1 [Compound (Ic)]
solubility [1]: 31.8 mg/mL (≈ 64.3 mM) | Compound (Ic) recovered after filtration (2 μm) after previous incubation with GI media ([2]; Fasted intestinal pH 6.8): 4.2 µg/mL | Compound (Ic) recovered after filtration (2 μm) after previous incubation with GI media ([2]; Fed intestinal pH 5): 8.8 µg/mL | Compound (Ic) recovered after filtration (2 μm) after previous incubation with GI media ([2]; Gastric medium): 1.9 µg/mL
